Test results as given in ChEMBL document CHEMBL1201862, “PubChem BioAssay data set” (2004).
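These data come from cells grown in 96-well plates and exposed to compound for 48 hours at five concentrations. The concentration for 50% growth inhibition is given as GI50.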 Activity calls are given as the source filed them. Cut-off read from the data, not from the text of the source: active = GI50 up to about 1.1 µM and inactive = higher. Where a SMILES comes first, the peptide text is derived from it. [ ]: non-standard residue; d: D form. The star is where a group is joined. Iva = CC[C](C)(N)C(=O)O; Boc = CC(C)(C)OC(=O)*; X54 = C1CCC(=NO*)C1

Key:
Test in all cases: NCI tumour cell line growth inhibition, 48 h
KM12 = test system: KM12
U-251 = test system: U-251
NCI-H23 = test system: NCI-H23
HOP-62 = test system: HOP-62
TK-10 = test system: TK-10
SW-620 = test system: SW-620
RPMI-8226 = test system: RPMI-8226
SNB-75 = test system: SNB-75
A549 = test system: A549
HOP-92 = test system: HOP-92
SK-MEL-28 = test system: SK-MEL-28
HL-60 = test system: HL-60
EKVX = test system: EKVX
HT-29 = test system: HT-29
RXF 393 = test system: RXF 393
NCI-H522 = test system: NCI-H522
K562 = test system: K562
NCI-H226 = test system: NCI-H226
SK-OV-3 = test system: SK-OV-3
UACC-62 = test system: UACC-62

Measured: GI50

COC(=O)/C=C\Sc1ccn(/C=C\C(=O)OC)c(=S)n1
inactive: KM12 12.4 µM | U-251 19.9 µM | NCI-H23 25.8 µM | HOP-62 17.1 µM | TK-10 27.9 µM | SW-620 26 µM | RPMI-8226 46 µM | SNB-75 22.9 µM | A549 22.1 µM | HOP-92 18.5 µM | SK-MEL-28 29.9 µM | HL-60 > 100 µM | EKVX 26.2 µM | HT-29 22.2 µM | RXF 393 10.5 µM | NCI-H522 16.1 µM | K562 38.5 µM

C/C(=N/NC(=O)c1ccncc1)C(F)(F)F
inactive: KM12 > 100 µM | U-251 > 100 µM | NCI-H226 > 100 µM | NCI-H23 > 100 µM | HOP-62 > 100 µM | TK-10 > 100 µM | SK-OV-3 > 100 µM | RPMI-8226 > 100 µM | SNB-75 > 100 µM | HOP-92 > 100 µM | SK-MEL-28 > 100 µM | HL-60 > 100 µM | HT-29 > 100 µM | UACC-62 > 100 µM | RXF 393 > 100 µM | NCI-H522 > 100 µM | K562 > 100 µM

CSc1cc(=O)n2c3ccccc3c3ccnc1c32
inactive: KM12 > 82.2 µM | U-251 > 55.6 µM | NCI-H226 14.2 µM | NCI-H23 > 100 µM | HOP-62 35.5 µM | SK-OV-3 25.6 µM | SW-620 > 100 µM | RPMI-8226 > 90.8 µM | SNB-75 > 69.3 µM | A549 > 100 µM | HOP-92 65.3 µM | SK-MEL-28 > 100 µM | HL-60 > 100 µM | EKVX 24.4 µM | HT-29 > 100 µM | UACC-62 41.4 µM | RXF 393 > 49.2 µM | NCI-H522 > 81.8 µM | K562 > 100 µM

CC(C(=O)O)c1cnn(-c2ccccc2)c1-n1cccc1 (stereo not drawn)
inactive: KM12 > 100 µM | U-251 > 100 µM | NCI-H226 > 100 µM | NCI-H23 > 100 µM | HOP-62 > 100 µM | SK-OV-3 > 100 µM | SW-620 > 63 µM | RPMI-8226 > 100 µM | SNB-75 > 100 µM | A549 > 100 µM | HOP-92 > 100 µM | SK-MEL-28 > 100 µM | HL-60 > 100 µM | EKVX > 100 µM | HT-29 > 100 µM | UACC-62 > 100 µM | RXF 393 > 100 µM | NCI-H522 > 100 µM | K562 > 100 µM

O=C1C(Cl)N(c2ccc(Cl)cc2)C1c1c[nH]c2ccccc12 (stereo not drawn)
inactive: KM12 27 µM | U-251 13 µM | NCI-H23 18.4 µM | HOP-62 17.7 µM | TK-10 19.8 µM | SK-OV-3 > 10 µM | SW-620 26 µM | RPMI-8226 20.6 µM | SNB-75 19.1 µM | A549 33.7 µM | HOP-92 22.5 µM | SK-MEL-28 24.8 µM | HL-60 15.8 µM | EKVX 16.9 µM | HT-29 17.1 µM | UACC-62 14.9 µM | RXF 393 20 µM | NCI-H522 17.2 µM | K562 16.7 µM

NC(Cc1ccccc1CP(=O)(O)O)C(=O)O (stereo not drawn)
inactive: KM12 > 100 µM | U-251 > 100 µM | NCI-H23 > 100 µM | TK-10 > 100 µM | SK-OV-3 > 100 µM | SW-620 > 100 µM | RPMI-8226 > 100 µM | SNB-75 > 100 µM | A549 > 100 µM | HOP-92 > 100 µM | SK-MEL-28 > 100 µM | HL-60 > 100 µM | EKVX > 100 µM | HT-29 > 100 µM | UACC-62 53 µM | RXF 393 > 100 µM | NCI-H522 > 100 µM | K562 > 100 µM

COc1ncnc2c(Cl)c(C(O)c3ccccc3)c(Cl)cc12 (stereo not drawn)
inactive: KM12 26.7 µM | U-251 27.3 µM | NCI-H23 41.6 µM | HOP-62 15.2 µM | TK-10 23 µM | SK-OV-3 19.5 µM | SW-620 25.6 µM | RPMI-8226 18.7 µM | SNB-75 22.4 µM | A549 34.8 µM | HOP-92 15.7 µM | SK-MEL-28 34.6 µM | HL-60 27.5 µM | EKVX 30.5 µM | HT-29 30.1 µM | UACC-62 16.1 µM | RXF 393 15.5 µM | NCI-H522 31.3 µM | K562 14.9 µM

CCC(C)(NC(=O)C(C)NC(=O)OC(C)(C)C)C(=O)NC(C)C(=O)NC(C)(CC)C(=O)ON=C1CCCC1 (stereo not drawn) (Boc-A[Iva]A[Iva]-X54; configuration not given here)
inactive: KM12 > 100 µM | U-251 > 100 µM | NCI-H226 > 100 µM | NCI-H23 > 100 µM | HOP-62 > 100 µM | SK-OV-3 > 100 µM | RPMI-8226 > 100 µM | SNB-75 > 100 µM | HOP-92 > 100 µM | SK-MEL-28 > 100 µM | HL-60 > 100 µM | UACC-62 > 100 µM | RXF 393 16.7 µM | NCI-H522 > 100 µM | K562 31.1 µM

CCOC(=O)c1ccc(N2C(=O)/C(=C/c3ccc(N(CCC#N)CCC#N)cc3)N=C2c2cc([N+](=O)[O-])ccc2Cl)cc1
inactive: KM12 > 100 µM | U-251 > 100 µM | NCI-H226 > 100 µM | NCI-H23 > 100 µM | HOP-62 > 100 µM | TK-10 > 100 µM | SK-OV-3 > 100 µM | SW-620 > 100 µM | RPMI-8226 > 100 µM | A549 > 100 µM | HOP-92 > 100 µM | SK-MEL-28 > 100 µM | EKVX > 100 µM | UACC-62 93.3 µM | RXF 393 > 100 µM | NCI-H522 > 100 µM | K562 > 100 µM

O=C1C(CO)=C[C@H](O)[C@H]2O[C@@H]12
inactive: KM12 83.9 µM | U-251 171 µM | NCI-H226 194 µM | NCI-H23 238 µM | HOP-62 497 µM | SK-OV-3 330 µM | SW-620 126 µM | RPMI-8226 > 96.8 µM | SNB-75 335 µM | A549 318 µM | HOP-92 283 µM | SK-MEL-28 136 µM | HL-60 78.3 µM | EKVX 121 µM | HT-29 260 µM | UACC-62 113 µM | RXF 393 153 µM | NCI-H522 88.7 µM | K562 163 µM

CC1=NN(C(=O)c2ccc(C)cc2)C(=O)C1/N=N/c1ccccc1C(=O)O (stereo not drawn)
inactive: KM12 > 100 µM | U-251 85.7 µM | NCI-H226 > 100 µM | NCI-H23 > 100 µM | HOP-62 > 100 µM | SK-OV-3 > 100 µM | SW-620 > 100 µM | RPMI-8226 95.7 µM | SNB-75 > 37.7 µM | A549 > 100 µM | HOP-92 > 79.8 µM | SK-MEL-28 > 100 µM | HL-60 > 62.7 µM | EKVX > 100 µM | HT-29 > 32.1 µM | UACC-62 > 100 µM | RXF 393 > 100 µM | NCI-H522 29.6 µM | K562 66.4 µM
